According to ChEMBL document CHEMBL1201862, “PubChem BioAssay data set” (2004):
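Exposure lasted 48 hours, with cells grown in 96-well plates and compounds tested at five concentrations. GI50: concentration for 50% inhibition of growth.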 Activity calls are given as the source filed them. Cut-off read from the data, not from the text of the source: active = GI50 up to about 1.1 µM and inactive = higher.

What was measured:
Experiment in all cases: NCI-60 cell line screen, 48 h
HCC 2998 = system: HCC 2998
OVCAR-3 = system: OVCAR-3
RXF 393 = system: RXF 393
SF-295 = system: SF-295
HCT-15 = system: HCT-15
M14 = system: M14
A498 = system: A498
OVCAR-4 = system: OVCAR-4
UACC-257 = system: UACC-257
HT-29 = system: HT-29
SF-539 = system: SF-539
HCT-116 = system: HCT-116
A549 = system: A549
CAKI-1 = system: CAKI-1
NCI-H522 = system: NCI-H522
SNB-19 = system: SNB-19
NCI-H23 = system: NCI-H23
NCI-H460 = system: NCI-H460
EKVX = system: EKVX

Compound: C=CCOCCCC(=O)C(=[N+]=[N-])C(=O)OC
- GI50 (HCC 2998): > 100 µM (inactive)
- GI50 (OVCAR-3): > 100 µM (inactive)
- GI50 (RXF 393): > 100 µM (inactive)
- GI50 (SF-295): > 100 µM (inactive)
- GI50 (HCT-15): > 100 µM
- GI50 (M14): > 100 µM (inactive)
- GI50 (A498): > 100 µM (inactive)
- GI50 (OVCAR-4): > 100 µM (inactive)
- GI50 (UACC-257): > 100 µM (inactive)
- GI50 (HT-29): > 100 µM (inactive)
- GI50 (SF-539): > 100 µM (inactive)
- GI50 (HCT-116): > 100 µM (inactive)
- GI50 (A549): > 100 µM (inactive)
- GI50 (CAKI-1): > 100 µM (inactive)
- GI50 (NCI-H522): > 100 µM (inactive)
- GI50 (SNB-19): > 100 µM (inactive)
- GI50 (NCI-H23): > 100 µM (inactive)
- GI50 (NCI-H460): > 100 µM (inactive)

Compound: CN(C)c1ccc(/C=C2\N=C(c3ccc(N)cc3)OC2=O)cc1
- GI50 (HCC 2998): > 100 µM (inactive)
- GI50 (OVCAR-3): > 100 µM (inactive)
- GI50 (SF-295): > 100 µM (inactive)
- GI50 (HCT-15): > 100 µM
- GI50 (M14): > 100 µM (inactive)
- GI50 (EKVX): > 100 µM (inactive)
- GI50 (A498): > 100 µM (inactive)
- GI50 (OVCAR-4): > 100 µM (inactive)
- GI50 (UACC-257): > 100 µM (inactive)
- GI50 (HT-29): > 100 µM (inactive)
- GI50 (SF-539): > 100 µM (inactive)
- GI50 (A549): > 100 µM (inactive)
- GI50 (CAKI-1): > 100 µM (inactive)
- GI50 (NCI-H522): > 100 µM (inactive)
- GI50 (SNB-19): > 100 µM (inactive)
- GI50 (NCI-H23): > 100 µM (inactive)
- GI50 (NCI-H460): > 100 µM (inactive)

Compound: O=C(CC/C(CC(=O)c1ccc(Br)cc1)=N\O)Nc1ccc(Cl)c(Cl)c1
- GI50 (HCC 2998): > 100 µM (inactive)
- GI50 (OVCAR-3): 57.5 µM (inactive)
- GI50 (RXF 393): 29.2 µM (inactive)
- GI50 (SF-295): > 100 µM (inactive)
- GI50 (HCT-15): 86.7 µM
- GI50 (M14): > 100 µM (inactive)
- GI50 (EKVX): 29.3 µM (inactive)
- GI50 (A498): 36.3 µM (inactive)
- GI50 (OVCAR-4): 64 µM (inactive)
- GI50 (UACC-257): 44.4 µM (inactive)
- GI50 (HT-29): 43.5 µM (inactive)
- GI50 (SF-539): > 100 µM (inactive)
- GI50 (HCT-116): > 100 µM (inactive)
- GI50 (A549): > 100 µM (inactive)
- GI50 (NCI-H522): 20.5 µM (inactive)
- GI50 (NCI-H23): > 100 µM (inactive)
- GI50 (NCI-H460): > 100 µM (inactive)

Compound: N#CC(C(=O)CCC(=O)Nc1ccc(Cl)cc1)c1ccccc1Cl (centres undefined)
- GI50 (OVCAR-3): > 100 µM (inactive)
- GI50 (SF-295): > 100 µM (inactive)
- GI50 (HCT-15): 21 µM
- GI50 (M14): 47.8 µM (inactive)
- GI50 (EKVX): > 100 µM (inactive)
- GI50 (A498): > 100 µM (inactive)
- GI50 (OVCAR-4): > 100 µM (inactive)
- GI50 (UACC-257): > 100 µM (inactive)
- GI50 (SF-539): > 100 µM (inactive)
- GI50 (HCT-116): 61.1 µM (inactive)
- GI50 (A549): > 100 µM (inactive)
- GI50 (CAKI-1): 89.3 µM (inactive)
- GI50 (NCI-H522): > 100 µM (inactive)
- GI50 (SNB-19): > 100 µM (inactive)
- GI50 (NCI-H23): 93.1 µM (inactive)
- GI50 (NCI-H460): > 100 µM (inactive)

Compound: Cc1ccc([S+]([O-])C[C@](NC(=O)OCc2ccccc2)(Sc2ccccc2)C(F)F)cc1 (some centres undefined)
- GI50 (HCC 2998): 18.7 µM (inactive)
- GI50 (OVCAR-3): 24.3 µM (inactive)
- GI50 (RXF 393): 21.7 µM (inactive)
- GI50 (SF-295): 16.8 µM (inactive)
- GI50 (HCT-15): 17.1 µM
- GI50 (M14): 33.3 µM (inactive)
- GI50 (EKVX): 13.7 µM (inactive)
- GI50 (A498): 13.5 µM (inactive)
- GI50 (OVCAR-4): 13.2 µM (inactive)
- GI50 (UACC-257): 15 µM (inactive)
- GI50 (HT-29): 16.6 µM (inactive)
- GI50 (HCT-116): 16.3 µM (inactive)
- GI50 (A549): 28.6 µM (inactive)
- GI50 (CAKI-1): 21.5 µM (inactive)
- GI50 (NCI-H522): 7.13 µM (inactive)
- GI50 (SNB-19): 14.4 µM (inactive)
- GI50 (NCI-H23): 17.7 µM (inactive)
- GI50 (NCI-H460): 17.9 µM (inactive)

Compound: CCCC(=O)c1c(NOC2OCC(OC(C)=O)C(OC(C)=O)C2OC(C)=O)nc(OC)n(C)c1=O (centres undefined)
- GI50 (HCC 2998): > 100 µM (inactive)
- GI50 (OVCAR-3): > 100 µM (inactive)
- GI50 (RXF 393): > 100 µM (inactive)
- GI50 (SF-295): > 100 µM (inactive)
- GI50 (HCT-15): > 100 µM
- GI50 (M14): > 100 µM (inactive)
- GI50 (EKVX): > 100 µM (inactive)
- GI50 (A498): > 100 µM (inactive)
- GI50 (OVCAR-4): > 100 µM (inactive)
- GI50 (UACC-257): > 100 µM (inactive)
- GI50 (HT-29): > 100 µM (inactive)
- GI50 (SF-539): > 100 µM (inactive)
- GI50 (HCT-116): > 100 µM (inactive)
- GI50 (A549): > 100 µM (inactive)
- GI50 (CAKI-1): > 100 µM (inactive)
- GI50 (SNB-19): > 100 µM (inactive)
- GI50 (NCI-H23): > 100 µM (inactive)
- GI50 (NCI-H460): > 100 µM (inactive)

Compound: O=C(O)CC(O)(c1ccccc1C(=O)O)c1cccc2ccccc12 (centres undefined)
- GI50 (OVCAR-3): > 100 µM (inactive)
- GI50 (RXF 393): > 100 µM (inactive)
- GI50 (SF-295): > 100 µM (inactive)
- GI50 (HCT-15): > 100 µM
- GI50 (M14): > 100 µM (inactive)
- GI50 (EKVX): > 100 µM (inactive)
- GI50 (A498): > 100 µM (inactive)
- GI50 (OVCAR-4): > 100 µM (inactive)
- GI50 (UACC-257): > 100 µM (inactive)
- GI50 (HT-29): > 100 µM (inactive)
- GI50 (SF-539): > 100 µM (inactive)
- GI50 (HCT-116): > 100 µM (inactive)
- GI50 (A549): > 100 µM (inactive)
- GI50 (CAKI-1): > 100 µM (inactive)
- GI50 (NCI-H522): > 100 µM (inactive)
- GI50 (SNB-19): > 100 µM (inactive)
- GI50 (NCI-H23): > 100 µM (inactive)
- GI50 (NCI-H460): > 100 µM (inactive)

Compound: N#CC(C(=O)CCC(=O)Nc1ccc(Cl)c(Cl)c1)c1ccccc1 (centres undefined)
- GI50 (HCC 2998): > 100 µM (inactive)
- GI50 (OVCAR-3): > 100 µM (inactive)
- GI50 (RXF 393): > 100 µM (inactive)
- GI50 (SF-295): > 100 µM (inactive)
- GI50 (HCT-15): > 100 µM
- GI50 (M14): > 100 µM (inactive)
- GI50 (EKVX): > 100 µM (inactive)
- GI50 (A498): > 100 µM (inactive)
- GI50 (OVCAR-4): > 100 µM (inactive)
- GI50 (UACC-257): > 100 µM (inactive)
- GI50 (HT-29): > 100 µM (inactive)
- GI50 (SF-539): > 100 µM (inactive)
- GI50 (HCT-116): > 100 µM (inactive)
- GI50 (A549): > 100 µM (inactive)
- GI50 (CAKI-1): > 100 µM (inactive)
- GI50 (SNB-19): > 100 µM (inactive)
- GI50 (NCI-H23): > 100 µM (inactive)
